Laboratory results from paper PMC8795197, “Safety and activity of WX-0593 (Iruplinalkib) in patients with ALK- or ROS1-rearranged advanced non-small cell lung cancer: a phase 1 dose-escalation and dose-expansion trial” (Signal Transduction and Targeted Therapy, 2022).
Like-named read-outs stand apart in the source and are kept apart here.

Legend:
Ba/F3 ALK-C1156Y = assay: Growth of transfected Ba/F3 cells (CellTiter-Glo, 3 days); type: cell-based; conditions: Mus musculus, BaF3; ALK-C1156Y; read-out: IC50
Procedure: (§1) Harvest cells during the logarithmic growth period and count cells using blood counting chamber. Adjust cell concentration with culture medium. Add 90µl cell suspensions to two 96-well plates to the final cell density as described before. Incubate the plate overnight in humidified incubator at 37℃ with 5% CO2. Dispense 10µl drug solution (10×) to each well (triplicate for each concentration), and the DMSO final concentration in culture medium is 0.1% [v/v]. Culture the plates for 3 days. On Day 3, Read luminescent using Multi Label Reader. The software of GraphPad Prism was used to calculate IC50. The graphical curves were fitted using a nonlinear regression model with a sigmoidal dose response.

Ba/F3 ALK-F1174C = assay: as above; type: cell-based; conditions: Mus musculus, BaF3, ALK-F1174C, read-out: IC50
Procedure: as §1

Ba/F3 ALK-F1174L = assay: as above; type: cell-based; conditions: Mus musculus, BaF3; ALK-F1174L; read-out: IC50
Procedure: as §1

Ba/F3 ALK-F1174V = assay: as above; type: cell-based; conditions: Mus musculus, BaF3; ALK-F1174V; read-out: IC50
Procedure: as §1

Ba/F3 ALK-G1202R = assay: as above; type: cell-based; conditions: Mus musculus, BaF3; ALK-G1202R; read-out: IC50
Procedure: as §1

Ba/F3 ALK-G1202del = assay: as above; type: cell-based; conditions: Mus musculus, BaF3; ALK-G1202del; read-out: IC50
Procedure: as §1

Ba/F3 ALK-G1269A = assay: as above; type: cell-based; conditions: Mus musculus, BaF3; ALK-G1269A; read-out: IC50
Procedure: as §1

Ba/F3 ALK-I1171N = assay: as above; type: cell-based; conditions: Mus musculus, BaF3; ALK-I1171N; read-out: IC50
Procedure: as §1

Ba/F3 ALK-I1171S = assay: as above; type: cell-based; conditions: Mus musculus, BaF3, ALK-I1171S, read-out: IC50
Procedure: as §1

Ba/F3 ALK-I1171T = assay: as above; type: cell-based; conditions: Mus musculus, BaF3; ALK-I1171T; read-out: IC50
Procedure: as §1

Ba/F3 ALK-L1152P = assay: as above; type: cell-based; conditions: Mus musculus, BaF3; ALK-L1152P; read-out: IC50
Procedure: as §1

Ba/F3 ALK-L1152R = assay: as above; type: cell-based; conditions: Mus musculus, BaF3; ALK-L1152R; read-out: IC50
Procedure: as §1

Ba/F3 ALK-L1196M = assay: as above; type: cell-based; conditions: Mus musculus, BaF3; ALK-L1196M; read-out: IC50
Procedure: as §1

Ba/F3 ALK-T1151Tins = assay: as above; type: cell-based; conditions: Mus musculus, BaF3; ALK-T1151Tins; read-out: IC50
Procedure: as §1

Ba/F3 ALK-V1180L = assay: as above; type: cell-based; conditions: Mus musculus, BaF3; ALK-V1180L; read-out: IC50
Procedure: as §1

Ba/F3 ALK-WT = assay: as above; type: cell-based; conditions: Mus musculus, BaF3; ALK-WT; read-out: IC50
Procedure: as §1

Ba/F3 (EML4-ALK-WT) = assay: Cell proliferation inhibition assay; type: cell-based
LU-01-0319R NSCLC PDX = assay: PDX model resistant to crizotinib; type: in vivo
[1] = tested on: NCI-H3122 (EML4-ALK fusion gene positive) human NSCLC; assay: CDX model: efficacy and exposure in plasma, tumor, brain, lung; type: in vivo
Text: NCI-H3122 (EML4-ALK fusion gene positive) is an ALK wild type human NSCLC. […] Higher drug concentration in the lungs provides the material basis for the treatment of lung cancer.

[2] = General pharmacology: CNS and respiratory system; type: in vivo, rats
Procedure: […]. Therefore, WX-0593 has a low risk of cardiotoxicity. There were no effects on the CNS and respiratory system in rats at doses of 3, 10, and 30 mg/kg. However, WX-0593 10 and 30 mg/kg may result in benign respiratory rate and decreases in minute ventilation in female rats. There were no effects on the cardiovascular system, blood pressure, ECG parameters or waveforms in monkeys at doses of 5, 10, and 25 mg/kg; 10 and 25 mg/kg may result in mild decreases in heart rate (within the normal range) and PR prolongation and QTc shortening associated with bradycardia within the normal range (no statistical difference when compared to the control arm). No cardiovascular system adverse reactions related to the test product were found. The human equivalent dose (using 60 kg) is 3636 mg/person in CNS, 3636 mg/person in male respiratory system and 363.6 mg/person in female respiratory system, and 607 mg/person in cardiovascular system.

## COc1cc(N2CCC3(CCN(C)CC3)CC2)ccc1Nc1ncc(Cl)c(Nc2ccccc2P(C)(C)=O)n1 [WX-0593]
Ba/F3 ALK-C1156Y
  IC50: 9 nM
Ba/F3 ALK-F1174C; first listing (r10)
  IC50: 36 nM
Ba/F3 ALK-F1174C; second listing (r15)
  IC50: 29.3 nM
Ba/F3 ALK-F1174L
  IC50: 36 nM
Ba/F3 ALK-F1174V
  IC50: 22.3 nM
Ba/F3 ALK-G1202R
  IC50: 96 nM
Ba/F3 ALK-G1202del
  IC50: 930 nM
Ba/F3 ALK-G1269A
  IC50: 36 nM
Ba/F3 ALK-I1171N
  IC50: 17.9 nM
Ba/F3 ALK-I1171S; first listing (r12)
  IC50: 32 nM
Ba/F3 ALK-I1171S; second listing (r19)
  IC50: 21.4 nM
Ba/F3 ALK-I1171T
  IC50: 11.3 nM
Ba/F3 ALK-L1152P
  IC50: 1.5 nM
Ba/F3 ALK-L1152R
  IC50: 4.6 nM
Ba/F3 ALK-L1196M
  IC50: 36 nM
Ba/F3 ALK-T1151Tins
  IC50: 12 nM
Ba/F3 ALK-V1180L
  IC50: 8.4 nM
Ba/F3 ALK-WT
  IC50: 21 nM
Ba/F3 (EML4-ALK-WT)
  growth inhibition: significantly inhibits the growth
LU-01-0319R NSCLC PDX; WX-0593 2.5, 5, 10 mg/kg, ceritinib 10/20 mg/kg, brigatinib 10 mg/kg
  anti-tumor effect: significant anti-tumor effects
LU-01-0319R NSCLC PDX; all treatment arms
  body weight: no significant decrease in weight
[1]; 5 mg/kg each
  drug exposure in tumor tissue relative to brigatinib: 2 times
  efficacy compared with brigatinib: comparable
  plasma drug exposure compared with brigatinib: comparable
[1]; 5 mg/kg each, 1 h after dosing
  drug exposure in the lungs relative to brigatinib: approximately 2 times
[1]; 5 mg/kg each, 8 h after dosing
  drug exposure in the brain relative to brigatinib: approximately 2 times
  drug exposure in the lungs relative to brigatinib: approximately 3 times
[1]; 2.5, 5, 10 mg/kg
  treatment efficacy versus dose: increased with dose
[1]; 1 h and 8 h after dosing, all dose arms (2.5, 5, 10 mg/kg)
  rank of drug concentrations in tissues: lungs > tumor > brain
[2]; 3, 10 and 30 mg/kg
  effects on the CNS and respiratory system: no effects
[2]; using 60 kg
  human equivalent dose, CNS: 3636 mg/person
  human equivalent dose, female respiratory system: 363.6 mg/person
  human equivalent dose, male respiratory system: 3636 mg/person
